Source: ChEMBL document CHEMBL6074657, “Discovery and Synthesis of Heterobifunctional Degraders of Rearranged during Transfection (RET) Kinase” (J Med Chem, 2024)

Legend:
in vitro [1] = settings: human, liver microsomes
in vitro [2] = settings: rat, liver microsomes
in vitro [3] = settings: human, liver microsomes; remark: listed apart in the source
in vitro [4] = settings: mouse, liver microsomes
in vitro [5] = settings: mouse, liver microsomes; remark: listed apart in the source
[6] = Bioavailability in mouse at 50 mg/kg, sc; format: ADME, organism-based; settings: in vivo
[7] = Tmax in athymic nude mouse at 8 to 75 mg/kg, sc by LC/MS analysis; format: ADME, organism-based; settings: in vivo, dose 8-75 mg/kg
[8] = Cmax in athymic nude mouse at 8 mg/kg, sc measured after 24 hrs by LC/MS analysis; format: ADME, organism-based; settings: in vivo
[9] = Cmax in athymic nude mouse at 75 mg/kg, sc measured after 24 hrs by LC/MS analysis; format: ADME, organism-based; settings: in vivo
[10] = Metabolic stability in rat liver microsomes assessed as half-life; format: ADME, Microsome
[11] = Cmax in athymic nude mouse at 25 mg/kg, sc measured after 24 hrs by LC/MS analysis; format: ADME, organism-based; settings: in vivo
[12] = Intrinsic clearance in mouse; format: ADME, organism-based; settings: in vivo

half-life (in vitro [1]) [h]	remaining at 10 min (in vitro [2]) [%]	remaining at 10 min (in vitro [3]) [%]	half-life (in vitro [4]) [h]	remaining at 10 min (in vitro [5]) [%]	bioavailability [6] [%]	Tmax [7] [h]	Cmax [8] [µM]	Cmax [9] [µM]	half-life [10] [h]	Cmax [11] [µM]	CLint scaled [12] [mL/min/kg]	Compound
1.28	100	98	> 2	100	–	–	–	–	–	–	–	CCOc1cc(-c2ccc(N3CCC(CN4CCN(C(=O)CCN5CCC(c6ccc7c(c6)C(=O)N([C@@H]6CCC(=O)NC6=O)C7)CC5)CC4)(NC(=O)c4cc(F)ccc4F)CC3)nc2)c2c(C#N)cnn2c1
0.583	88	78	1.55	80	–	–	–	–	–	–	–	CCOc1cc(-c2ccc(N3CCC(CN4CCN(C(=O)CCCCCCN5CCC(c6ccc7c(c6)CN(C6CCC(=O)NC6=O)C7=O)CC5)CC4)(NC(=O)c4cc(F)ccc4F)CC3)nc2)c2c(C#N)cnn2c1 (stereo not given)
–	97	79	–	100	–	–	–	–	–	–	–	CCOc1cc(-c2ccc(N3CCC(CN4CCN(C(=O)CCN5CCC(c6ccc7c(c6)C(=O)N(C6CCC(=O)NC6=O)C7)CC5)CC4)(NC(=O)c4ncccc4F)CC3)nc2)c2c(C#N)cnn2c1 (stereo not given)
1.02	94	85	0.95	82	–	–	–	–	–	–	–	CCOc1cc(-c2ccc(N3CCC(CN4CCN(C(=O)CCN5CCC(c6ccc7c(c6)CN(C6CCC(=O)NC6=O)C7=O)CC5)CC4)(NC(=O)c4cc(F)ccc4F)CC3)nc2)c2c(C#N)cnn2c1 (stereo not given)
1.4	100	88	1.42	85	–	–	–	–	–	–	–	CCOc1cc(-c2ccc(N3CCC(CN4CCN(C(=O)CCCCN5CCC(c6ccc7c(c6)CN(C6CCC(=O)NC6=O)C7=O)CC5)CC4)(NC(=O)c4cc(F)ccc4F)CC3)nc2)c2c(C#N)cnn2c1 (stereo not given)
> 2	100	100	> 2	80	–	–	–	–	–	–	–	CCOc1cc(-c2ccc(N3CCC(CN4CCN(C(=O)CCN5CCC(c6ccc7c(c6)C(=O)N([C@H]6CCC(=O)NC6=O)C7)CC5)CC4)(NC(=O)c4cc(F)ccc4F)CC3)nc2)c2c(C#N)cnn2c1
0.867	89	82	0.933	85	–	–	–	–	–	–	–	CCOc1cc(-c2ccc(N3CCC(CN4CCN(C(=O)CCN5CCC(c6ccc7c(c6)C(=O)N(C6CCC(=O)NC6=O)C7)CC5)CC4)(NC(=O)c4cc(F)ccc4F)CC3)nc2)c2c(C#N)cnn2c1 (stereo not given)

Continued, molecule first:

Compound	half-life (in vitro [1]) [h]	remaining at 10 min (in vitro [2]) [%]	remaining at 10 min (in vitro [3]) [%]	half-life (in vitro [4]) [h]	remaining at 10 min (in vitro [5]) [%]	bioavailability [6] [%]	Tmax [7] [h]	Cmax [8] [µM]	Cmax [9] [µM]	half-life [10] [h]	Cmax [11] [µM]	CLint scaled [12] [mL/min/kg]
CCOc1cc(-c2ccc(N3CCC(CN4CCN(C(=O)CCN5CCC(c6ccc7c(N8CCC(=O)NC8=O)nn(C)c7c6)CC5)CC4)(NC(=O)c4cc(F)ccc4F)CC3)nc2)c2c(C#N)cnn2c1	0.7	75	81	1.73	88	–	–	–	–	–	–	–
CCOc1cc(-c2ccc(N3CCC(CN4CCN(C(=O)C5CC(N6CCC(c7ccc8c(c7)C(=O)N(C7CCC(=O)NC7=O)C8)CC6)C5)CC4)(NC(=O)c4cc(F)ccc4F)CC3)nc2)c2c(C#N)cnn2c1 (stereo not given)	1.48	–	–	> 2	–	30	1	0.708	8.09	> 2	4.3	–
COc1ccc(CN2[C@@H]3C[C@H]2CN(c2ccc(-c4cc(OCC(C)(C)O)cn5ncc(C#N)c45)cn2)C3)cn1	–	89	58	–	63	–	–	–	–	–	–	–
CCOc1cc(-c2ccc(N3CCC(CN4CCN(C(=O)CCCCCCN5CCN(c6ccc7c(c6)CN(C6CCC(=O)NC6=O)C7=O)CC5)CC4)(NC(=O)c4cc(F)ccc4F)CC3)nc2)c2c(C#N)cnn2c1 (stereo not given)	0.133	84	40	0.467	70	–	–	–	–	–	–	32
CCOc1cc(-c2ccc(N3CCC(CN4CCC(C(=O)N5CC(N6CCC(c7ccc8c(c7)C(=O)N(C7CCC(=O)NC7=O)C8)CC6)C5)CC4)(NC(=O)c4cc(F)ccc4F)CC3)nc2)c2c(C#N)cnn2c1 (stereo not given)	> 2	–	–	1.57	–	–	–	–	–	–	–	–
CCOc1cc(-c2ccc(N3CCC(COCC(=O)N4CCC(CN5CCN(c6ccc7c(c6)CN(C6CCC(=O)NC6=O)C7=O)CC5)CC4)(NC(=O)c4cc(F)ccc4F)CC3)nc2)c2c(C#N)cnn2c1 (stereo not given)	–	81	10	–	68	–	–	–	–	–	–	–
CCOc1cc(-c2ccc(N3CCC(CN4CCN(C(=O)C5CC6(C5)CC(N5CCN(c7ccc8c(c7)CN(C7CCC(=O)NC7=O)C8=O)CC5)C6)CC4)(NC(=O)c4cc(F)ccc4F)CC3)nc2)c2c(C#N)cnn2c1 (stereo not given)	> 2	100	84	1.53	81	–	–	–	–	–	–	–
